Data taken from the supplement of paper PMC13380429.

Experiments:
Conditions in all cases: 72 h
U2OS [1] = assay: cell viability relative to DMSO; higher = less toxic
Caco-2 [2] = assay: as above
HepG2 [3] = assay: as above
Calu-3 [4] = assay: as above
Vero E6 [5] = assay: as above
U2OS [6] = assay: drug sensitivity score (DSS) for viability; higher = more toxic; extreme values may be limits of the assay
Caco-2 [7] = assay: as above
HepG2 [8] = assay: as above
Calu-3 [9] = assay: as above
Vero E6 [10] = assay: as above
U2OS [11] = assay: relative viability EC50 (midpoint between 100% and the lowest measured viability); higher = less toxic
Caco-2 [12] = assay: as above
HepG2 [13] = assay: as above
Calu-3 [14] = assay: as above
Vero E6 [15] = assay: as above

Row | SMILES | cell viability (U2OS [1]; 1 nM) | cell viability (U2OS [1]; 10 nM) | cell viability (U2OS [1]; 100 nM) | cell viability (U2OS [1]; 1000 nM) | cell viability (U2OS [1]; 10000 nM) | cell viability (Caco-2 [2]; 1 nM) | cell viability (Caco-2 [2]; 10 nM) | cell viability (Caco-2 [2]; 100 nM) | cell viability (Caco-2 [2]; 1000 nM) | cell viability (Caco-2 [2]; 10000 nM) | cell viability (HepG2 [3]; 1 nM) | cell viability (HepG2 [3]; 10 nM) | cell viability (HepG2 [3]; 100 nM) | cell viability (HepG2 [3]; 1000 nM) | cell viability (HepG2 [3]; 10000 nM) | cell viability (Calu-3 [4]; 1 nM) | cell viability (Calu-3 [4]; 10 nM) | cell viability (Calu-3 [4]; 100 nM) | cell viability (Calu-3 [4]; 1000 nM) | cell viability (Calu-3 [4]; 10000 nM) | cell viability (Vero E6 [5]; 1 nM) | cell viability (Vero E6 [5]; 10 nM) | cell viability (Vero E6 [5]; 100 nM) | cell viability (Vero E6 [5]; 1000 nM) | cell viability (Vero E6 [5]; 10000 nM) | drug sensitivity score (U2OS [6]) | drug sensitivity score (Caco-2 [7]) | drug sensitivity score (HepG2 [8]) | drug sensitivity score (Calu-3 [9]) | drug sensitivity score (Vero E6 [10]) | relative viability EC50 (U2OS [11]) | relative viability EC50 (Caco-2 [12]) | relative viability EC50 (HepG2 [13]) | relative viability EC50 (Calu-3 [14]) | relative viability EC50 (Vero E6 [15])
1 | CN1CCC(=C2c3ccccc3C=Cc3ccccc32)CC1 [cyproheptadine] | 97.6% | 97.4% | 92.1% | 100% | 96.9% | 106% | 96.4% | 99.7% | 90.3% | 90.3% | 88.7% | 90.1% | 116% | 103% | 86.6% | 101% | 97.2% | 91.3% | 106% | 101% | 98.8% | 99.5% | 97.3% | 86.1% | 79.3% | 0 | 0 | 0 | 0 | 1.8 | > 10 µM | > 10 µM | > 10 µM | > 10 µM | > 10 µM
2 | COc1ccc(Cl)cc1NC(=O)Nc1cc(C)nc2ccccc12 [PQ-401] | 98.2% | 98.5% | 100% | 101% | 86.1% | 93.8% | 97% | 108% | 97.6% | 77.8% | 99.1% | 106% | 92% | 103% | 80.3% | 106% | 93.4% | 107% | 94.9% | 100% | 96.4% | 95.3% | 92.8% | 96.4% | 90.8% | 0.1 | 1.1 | 0.4 | 0 | 0 | > 10 µM | > 10 µM | > 10 µM | > 10 µM | > 10 µM
3 | CS(=O)(=O)OCCCCOS(C)(=O)=O [busulfan] | 102% | 95.9% | 105% | 98.4% | 100% | 109% | 93.4% | 92.1% | 84.1% | 96.5% | 107% | 92.9% | 112% | 95.8% | 79.2% | 101% | 104% | 89.7% | 99.6% | 106% | 94.9% | 94.8% | 99.6% | 86.2% | 84.5% | 0 | 0.2 | 1.2 | 0 | 1.3 | > 10 µM | > 10 µM | > 10 µM | > 10 µM | > 10 µM
